# Results from patent publication US20260007681A1, “INDOLE DERIVATIVES AS ESTROGEN RECEPTOR DEGRADERS” (REGENTS OF THE UNIVERSITY OF MICHIGAN, priority 2022, published 2026).
# Target: ER (Homo sapiens (Human), UniProt P03372)
# Test: Western blot analysis (Compounds B1-B278)
# Format: cell-based
# Conditions: ER degradation by traditional Western blot; DC50 classes
# Procedure, shortened: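 Compound-treated cells were lysed in RIPA buffer (Tris.HCl pH 7.6, 1% NP-40, deoxycholate, 0.1% SDS) with protease inhibitors; equal protein was resolved on 10% SDS-PAGE, transferred to PVDF and immunoblotted. Band intensities were quantified and normalized to GAPDH.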
# Sequence of ER (P03372 whole entry): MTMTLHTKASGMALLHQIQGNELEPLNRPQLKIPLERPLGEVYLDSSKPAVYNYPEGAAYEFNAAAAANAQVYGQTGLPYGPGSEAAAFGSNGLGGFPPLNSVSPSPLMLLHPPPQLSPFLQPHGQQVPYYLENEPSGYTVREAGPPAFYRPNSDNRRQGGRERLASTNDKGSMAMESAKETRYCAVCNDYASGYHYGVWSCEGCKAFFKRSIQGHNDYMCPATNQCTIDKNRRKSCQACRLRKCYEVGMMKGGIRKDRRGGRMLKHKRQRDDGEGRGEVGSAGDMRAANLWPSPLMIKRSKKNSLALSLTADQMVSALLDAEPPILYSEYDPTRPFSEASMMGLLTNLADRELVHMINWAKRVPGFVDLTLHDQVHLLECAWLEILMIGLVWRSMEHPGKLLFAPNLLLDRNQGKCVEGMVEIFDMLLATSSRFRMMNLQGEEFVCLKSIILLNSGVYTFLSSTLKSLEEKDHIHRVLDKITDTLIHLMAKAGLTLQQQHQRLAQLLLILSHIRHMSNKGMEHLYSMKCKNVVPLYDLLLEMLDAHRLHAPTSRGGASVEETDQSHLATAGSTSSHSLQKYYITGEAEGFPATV
row,Structure (SMILES),Traditional Western Degradation Potency
1,"C[C@@H]1Cc2c([nH]c3ccccc23)[C@@H](c2ccc(N3CCC4(CCN(C(=O)CN5Cc6cc7c(cc6C5)C(=O)N(C5CCC(=O)NC5=O)C7=O)CC4)CC3)cc2F)N1CC(F)F (stereo partly drawn) [Compound B231, 6-(2-(9-(4-((1R,3R)-2-(2,2-difluoroethyl)-3-methyl-2,3,4,9-tetrahydro-1H-pyrido[3,4-b]indol-1-yl)-3-fluorophenyl)-3,9-diazaspiro[5.5]undecan-3-yl)-2-oxoethyl)-2-(2,6-dioxopiperidin-3-yl)-6,7-dihydropyrrolo[3,4-f]isoindole-1,3(2H,5H)-dione]",B (“B”: 10-100 nM)
2,"C[C@@H]1Cc2c([nH]c3ccccc23)[C@@H](c2ccc(N3CCC(C(=O)N4CCC(N5Cc6cc7c(cc6C5)C(=O)N(C5CCC(=O)NC5=O)C7=O)CC4)CC3)cc2F)N1CC(F)F (stereo partly drawn) [Compound B232, 6-(1-(1-(4-((1R,3R)-2-(2,2-difluoroethyl)-3-methyl-2,3,4,9-tetrahydro-1H-pyrido[3,4-b]indol-1-yl)-3-fluorophenyl)piperidine-4-carbonyl)piperidin-4-yl)-2-(2,6-dioxopiperidin-3-yl)-6,7-dihydropyrrolo[3,4-f]isoindole-1,3(2H,5H)-dione]",A (“A”: <10 nM)
3,"C[C@@H]1Cc2c([nH]c3ccccc23)[C@@H](c2ccc(C3CCC(C(=O)N4CCC(N5Cc6cc7c(cc6C5)C(=O)N(C5CCC(=O)NC5=O)C7=O)CC4)CC3)cc2F)N1CC(F)F (stereo partly drawn) [Compound B233, 6-(1-(4-(4-((1R,3R)-2-(2,2-difluoroethyl)-3-methyl-2,3,4,9-tetrahydro-1H-pyrido[3,4-b]indol-1-yl)-3-fluorophenyl)cyclohexane-1-carbonyl)piperidin-4-yl)-2-(2,6-dioxopiperidin-3-yl)-6,7-dihydropyrrolo[3,4-f]isoindole-1,3(2H,5H)-dione]",B (“B”: 10-100 nM)
4,"C[C@@H]1Cc2c([nH]c3ccccc23)[C@@H](c2ccc(C3CCC(C(=O)N4CCC(N5Cc6cc7c(cc6C5)C(=O)N(C5CCC(=O)NC5=O)C7=O)CC4)CC3)cn2)N1CC(F)F (stereo partly drawn) [Compound B234, 6-(1-(4-(6-((1S,3R)-2-(2,2-difluoroethyl)-3-methyl-2,3,4,9-tetrahydro-1H-pyrido[3,4-b]indol-1-yl)pyridin-3-yl)cyclohexane-1-carbonyl)piperidin-4-yl)-2-(2,6-dioxopiperidin-3-yl)-6,7-dihydropyrrolo[3,4-f]isoindole-1,3(2H,5H)-dione]",C (“C”: >100 nM)
5,"C[C@@H]1Cc2c([nH]c3ccccc23)[C@@H](c2ccc(C3=CCC(C(=O)N4CCC(N5Cc6cc7c(cc6C5)C(=O)N(C5CCC(=O)NC5=O)C7=O)CC4)CC3)nc2)N1CC(F)F (stereo partly drawn) [Compound B235, 6-(1-(4-(5-((1R,3R)-2-(2,2-difluoroethyl)-3-methyl-2,3,4,9-tetrahydro-1H-pyrido[3,4-b]indol-1-yl)pyridin-2-yl)cyclohex-3-ene-1-carbonyl)piperidin-4-yl)-2-(2,6-dioxopiperidin-3-yl)-6,7-dihydropyrrolo[3,4-f]isoindole-1,3(2H,5H)-dione]",C (“C”: >100 nM)
6,"C[C@@H]1Cc2c([nH]c3ccccc23)[C@@H](c2cnc(C3=CCC(C(=O)N4CCC(N5Cc6cc7c(cc6C5)C(=O)N(C5CCC(=O)NC5=O)C7=O)CC4)CC3)nc2)N1CC(F)F (stereo partly drawn) [Compound B236, 6-(1-(4-(5-((1R,3R)-2-(2,2-difluoroethyl)-3-methyl-2,3,4,9-tetrahydro-1H-pyrido[3,4-b]indol-1-yl)pyrimidin-2-yl)cyclohex-3-ene-1-carbonyl)piperidin-4-yl)-2-(2,6-dioxopiperidin-3-yl)-6,7-dihydropyrrolo[3,4-f]isoindole-1,3(2H,5H)-dione]",B (“B”: 10-100 nM)
7,"C[C@@H]1Cc2c([nH]c3ccccc23)[C@@H](c2ccc(C3=CCC(C(=O)N4CCC(N5Cc6cc7c(cc6C5)C(=O)N(C5CCC(=O)NC5=O)C7=O)CC4)CC3)cc2)N1CC(F)F (stereo partly drawn) [Compound B237, 6-(1-(4′-((1R,3R)-2-(2,2-difluoroethyl)-3-methyl-2,3,4,9-tetrahydro-1H-pyrido[3,4-b]indol-1-yl)-2,3,4,5-tetrahydro-[1,1′-biphenyl]-4-carbonyl)piperidin-4-yl)-2-(2,6-dioxopiperidin-3-yl)-6,7-dihydropyrrolo[3,4-f]isoindole-1,3(2H,5H)-dione]",B (“B”: 10-100 nM)
8,"C[C@@H]1Cc2c([nH]c3ccccc23)[C@@H](c2ccc(C3CCC(C(=O)N4CCC(N5Cc6cc7c(cc6C5)C(=O)N(C5CCC(=O)NC5=O)C7=O)CC4)CC3)nc2)N1CC(F)F (stereo partly drawn) [Compound B238, 6-(1-(4-(5-((1R,3R)-2-(2,2-difluoroethyl)-3-methyl-2,3,4,9-tetrahydro-1H-pyrido[3,4-b]indol-1-yl)pyridin-2-yl)cyclohexane-1-carbonyl)piperidin-4-yl)-2-(2,6-dioxopiperidin-3-yl)-6,7-dihydropyrrolo[3,4-f]isoindole-1,3(2H,5H)-dione]",C (“C”: >100 nM)
9,"C[C@@H]1Cc2c([nH]c3ccccc23)[C@@H](c2ccc(C3CCC(C(=O)N4CCC(N5Cc6cc7c(cc6C5)C(=O)N(C5CCC(=O)NC5=O)C7=O)CC4)CC3)c(F)c2)N1CC(F)F (stereo partly drawn) [Compound B239, 6-(1-(4-(4-((1R,3R)-2-(2,2-difluoroethyl)-3-methyl-2,3,4,9-tetrahydro-1H-pyrido[3,4-b]indol-1-yl)-2-fluorophenyl)cyclohexane-1-carbonyl)piperidin-4-yl)-2-(2,6-dioxopiperidin-3-yl)-6,7-dihydropyrrolo[3,4-f]isoindole-1,3(2H,5H)-dione]",B (“B”: 10-100 nM)
10,"C[C@@H]1Cc2c([nH]c3ccccc23)[C@@H](c2c(F)cc(C3=CCC4(CC3)CCN(C(=O)CN3Cc5cc6c(cc5C3)C(=O)N(C3CCC(=O)NC3=O)C6=O)CC4)cc2F)N1CC(F)F (stereo partly drawn) [Compound B240, 6-(2-(9-(4-((1R,3R)-2-(2,2-difluoroethyl)-3-methyl-2,3,4,9-tetrahydro-1H-pyrido[3,4-b]indol-1-yl)-3,5-difluorophenyl)-3-azaspiro[5.5]undec-8-en-3-yl)-2-oxoethyl)-2-(2,6-dioxopiperidin-3-yl)-6,7-dihydropyrrolo[3,4-f]isoindole-1,3(2H,5H)-dione]",B (“B”: 10-100 nM)
11,"C[C@@H]1Cc2c([nH]c3ccccc23)[C@@H](c2ccc(C3=CCC4(CC3)CCN(C(=O)CN3Cc5cc6c(cc5C3)C(=O)N(C3CCC(=O)NC3=O)C6=O)CC4)cc2F)N1CC(F)F (stereo partly drawn) [Compound B241, 6-(2-(9-(4-((1R,3R)-2-(2,2-difluoroethyl)-3-methyl-2,3,4,9-tetrahydro-1H-pyrido[3,4-b]indol-1-yl)-3-fluorophenyl)-3-azaspiro[5.5]undec-8-en-3-yl)-2-oxoethyl)-2-(2,6-dioxopiperidin-3-yl)-6,7-dihydropyrrolo[3,4-f]isoindole-1,3(2H,5H)-dione]",C (“C”: >100 nM)
12,"C[C@@H]1Cc2c([nH]c3ccccc23)[C@@H](c2ccc(C3CCC4(CC3)CCN(C(=O)CN3Cc5cc6c(cc5C3)C(=O)N(C3CCC(=O)NC3=O)C6=O)CC4)cc2F)N1CC(F)F (stereo partly drawn) [Compound B243, 6-(2-(9-(4-((1R,3R)-2-(2,2-difluoroethyl)-3-methyl-2,3,4,9-tetrahydro-1H-pyrido[3,4-b]indol-1-yl)-3-fluorophenyl)-3-azaspiro[5.5]undecan-3-yl)-2-oxoethyl)-2-(2,6-dioxopiperidin-3-yl)-6,7-dihydropyrrolo[3,4-f]isoindole-1,3(2H,5H)-dione]",C (“C”: >100 nM)
